Reference: US11203015B2, “Microfluidic device” (TECHNISCHE UNIVERSITAT WIEN, priority 2016, dated 2021)

Test system: human umbilical vain endothelial cells (HUVECs)
Assay: microfluidic wound healing assay (membrane deflection, cell depletion)
Type: cell-based
Description: Lentivirally transduced GFP HUVEC (human umbilical vain endothelial cells) were obtained from Olaf pharmaceuticals (USA) and cultivated in gelatin coated 25 cm^2 cell culture flasks and maintained in EGM-2 (Lonza, CC3156) supplemented with EGM-2 SingleQuots (Lonza, CC4176). The coating was performed using 1% gelatin solution (9000-70-8, Sigma Aldrich) in DPBS and was incubated for 30 min at 37° C. For on chip experiments the medium was supplemented with 1% hepes buffer (J848, AMRESCO). For the coating experiment 500 mM NaOH was inserted to the microfluidic channels, incubated for 15 min at RT, following rinsing with PBS and a protein mixture comprising 10 μg/m fibronectin (Sigma Aldrich, F4759) and […] fibrinogen conjugated with Alexa Fluor 488 (Thermo Fisher, F13191) was incubated for 1 h at 37° C.
The microfluidic device of example 1 was placed on a heating plate equipped with a temperature controller. The temperature of the plate was adjusted to reach 37° C. on top of the microdevice. For the on-chip wound healing assays the microchip was first sterilized using 70% ethanol, rinsed using a 1 M NaOH solution for 15 min and washed with PBS prior coating using a 1% gelatin solution for 1 h. Cell suspension of desired concentration was prepared and inserted into microchannels using plastic syringe (1 ml). Cells were allowed to adhere for 1 h in the absence of fluid flow followed by a constant medium perfusion of 4 μl/min using syringe pump. As soon as the cells were grown confluent (typically 1 to 2 days) cells were mechanically damaged (“squeezed”) by the PDMS membrane, which bended under force towards the cell layer. Bending was induced by manual increase of pressure load to 150 kPa (differential pressure) followed by immediate release to 0 kPa using a pressure controller. To further remove residual cell debris from the substrate multiple membrane deflections (minimum of three times) were performed. During the mechanical damaging the medium perfusion was always kept on.
The fluorescence pictures were transformed to grey scale, the contrast increased and the leading edge of the wound selected using the Magic wand tool. This image was then processed using Image) by determining the cell-free area with the tool Analyze Particles.
Next the ability to create defined and reproducible cell depletion zones within a confluent cell monolayer was evaluated using the membrane deflection method. In a series of experiments endothelial cells were seeded and cultivated in a microfluidic channel for a minimum period of 6 hours prior cell removal. During the entire wound healing assay including the cell depletion procedure the applied flow rate of 3 μl/min was kept constant to ensure complete removal of cell debris following membrane compression. In addition to maintaining an intact coating, a further aspect that may also influence cell migration is associated with the release of biochemical factors from viable but injured cells at the edge of the wounding area. To investigate whether cells located in the adjacent vicinity of the cell-free area are injured by membrane compression, dead staining using ethidium homodimer-1 was conducted in subsequent experiments. Results indicated the presence of red fluorescently labelled DNA debris present in the cell-free area following 1 h after wound induction. More importantly, none of the leading edge cells appeared damaged by the membrane compression, since only DNA from lysed cells inside the wound remained on the substrate. […]

[1] = 10 μg/ml Mitomycin-C, one hour exposure, flow rate 3 μl/min, after 6 h

CO[C@@]12[C@H](COC(N)=O)C3=C(C(=O)C(C)=C(N)C3=O)N1C[C@@H]1N[C@@H]12 [Mitomycin-C]
wound closure observed after (10 μg/ml Mitomycin-C, one hour exposure): 24 h | cell-free area, times larger compared to TNF-α treated cells [1]: 1.5 | cell-free area, times larger compared to control experiments [1]: 5 | cell density within the wounded area (10 μg/ml Mitomycin-C, after 24 h, compared to control): visibly reduced

TNF-α
remaining cell-free area, factor larger than control experiments (1 ng/ml TNF-α in medium immediately after wound induction and maintained, 6 h post wounding): 3.3
